{"source": "patent US4333938A", "about": "“Imino derivatives of 5-aminobenzodioxole-1,3 which are useful as medicaments” (Laboratoires Sarget, priority 1979, dated 1982)", "key": {"[1]": {"test": "solubility in water", "type": "physicochemical"}, "[2]": {"test_system": "carageenan-induced edema", "test": "inhibition of carrageenan-induced edema", "type": "in vivo, male Wistar rat", "settings": "oral", "description": "The inflammation is produced in the male Wistar rat by injection of 0.1 ml of a 0.5% suspension of carageenan in physiological serum, into the muscular fascia of the metatarsal region of the hind foot of the animal. The test substance is administered orally at the same time as the carageenan or 30 or 60 min before carageenan. The edema is measured by plethysmometry three hours after the adminstration of the carrageenan."}, "[3]": {"test": "oral toxicity (mortality) in the mouse", "settings": "in vivo, Swiss mice", "description": "(§1) The percentages of mortality produced by the compounds of this invention when administered orally to Swiss mice are shown in Table 1. The animals, free from specific pathogenic organisms were housed in an air conditioned room for 24 to 48 hours before the start of the experiment. They were separated into groups of 5 males and 5 females. The materials were administered to animals which had been fasted for 24 hours by means of a gastric tube in suspension in a 6% thickened julep using a volume equivalent to 0.1 ml per 10 g of body weight. […] They remained under observation for two weeks before being sacrificed and autopsied."}, "[4]": {"test": "oral toxicity (mortality) in the Wistar rat", "type": "in vivo", "settings": "in vivo, 3000 mg/kg", "description": "as §1\nThe toxicities of the compounds of Examples 2 and 3 were determined in the Wistar rat. The protocol which was followed was the same as that described for the mice, except that the compounds were administered in a volume equivalent to 0.5 ml per 100 g of body weight of rat. […] The product of Example 3 produced no mortality at 2000 mg/kg and 20% mortality at 3000 mg/kg."}}, "note": "Where “and” joins values, the source holds several entries; their conditions need not be identical. Equal values may be shown once.", "data": [{"smiles": "Cc1ccc(C=Nc2ccc3c(c2)OCO3)s1", "note": "[Example 2, N-(5-methyl-2-thienylidene)-5-aminobenzodioxole-1,3]", "values": [{"measurement": "solubility in water", "setting": "[1]", "result": "insoluble in water"}, {"measurement": "% inhibiting activity on carrageenan-induced edema", "setting": "[2]; To - 30, 75 mg/kg", "result": 21, "unit": "%"}, {"measurement": "% inhibiting activity on carrageenan-induced edema", "setting": "[2]; To - 30, 150 mg/kg", "result": 47, "unit": "%"}, {"measurement": "% inhibiting activity on carrageenan-induced edema", "setting": "[2]; To - 30, 300 mg/kg", "result": 61, "unit": "%"}, {"measurement": "% inhibiting activity on carrageenan-induced edema", "setting": "[2]; To - 60, 75 mg/kg", "result": 15, "unit": "%"}, {"measurement": "% inhibiting activity on carrageenan-induced edema", "setting": "[2]; To - 60, 150 mg/kg", "result": 26, "unit": "%"}, {"measurement": "% inhibiting activity on carrageenan-induced edema", "setting": "[2]; To - 60, 225 mg/kg", "result": 49, "unit": "%"}, {"measurement": "% inhibiting activity on carrageenan-induced edema", "setting": "[2]; To - 60, 300 mg/kg", "result": 66, "unit": "%"}, {"measurement": "% inhibiting activity on carrageenan-induced edema", "setting": "[2]; at To, 100 mg/kg", "result": 30, "unit": "%"}, {"measurement": "% inhibiting activity on carrageenan-induced edema", "setting": "[2]; at To, 150 mg/kg", "result": 64, "unit": "%"}, {"measurement": "% inhibiting activity on carrageenan-induced edema", "setting": "[2]; at To, 200 mg/kg", "result": 33, "unit": "%"}, {"measurement": "% inhibiting activity on carrageenan-induced edema", "setting": "[2]; at To, 300 mg/kg", "result": 59, "unit": "%"}, {"measurement": "mortality at 336 h", "setting": "[3]; 750 mg/kg", "result": 10, "unit": "%"}, {"measurement": "mortality at 336 h", "setting": "[3]; 1000 mg/kg", "result": 20, "unit": "%"}, {"measurement": "mortality at 336 h", "setting": "[3]; 1250 mg/kg", "result": 0, "unit": "%"}, {"measurement": "mortality at 336 h", "setting": "[3]; 1500 mg/kg", "result": 60, "unit": "%"}]}, {"smiles": "C(=Nc1ccc2c(c1)OCO2)c1cccnc1", "note": "[Example 3, N-(3-pyridylidene)-5-aminobenzodioxole-1,3]", "values": [{"measurement": "solubility in water", "setting": "[1]", "result": "insoluble in water"}, {"measurement": "% inhibiting activity on carrageenan-induced edema", "setting": "[2]; To - 30 (30 min before carrageenan), 25 mg/kg", "result": 34, "unit": "%"}, {"measurement": "% inhibiting activity on carrageenan-induced edema", "setting": "[2]; To - 30, 50 mg/kg", "result": "41% and 38%"}, {"measurement": "% inhibiting activity on carrageenan-induced edema", "setting": "[2]; To - 30, 75 mg/kg", "result": 44, "unit": "%"}, {"measurement": "% inhibiting activity on carrageenan-induced edema", "setting": "[2]; To - 30, 100 mg/kg", "result": "50% and 41%"}, {"measurement": "% inhibiting activity on carrageenan-induced edema", "setting": "[2]; To - 30, 150 mg/kg", "result": 53, "unit": "%"}, {"measurement": "% inhibiting activity on carrageenan-induced edema", "setting": "[2]; To - 30, 200 mg/kg", "result": 66, "unit": "%"}, {"measurement": "% inhibiting activity on carrageenan-induced edema", "setting": "[2]; To - 30, 400 mg/kg", "result": "67% and 72%"}, {"measurement": "% inhibiting activity on carrageenan-induced edema", "setting": "[2]; To - 60 (60 min before carrageenan), 25 mg/kg", "result": 25, "unit": "%"}, {"measurement": "% inhibiting activity on carrageenan-induced edema", "setting": "[2]; To - 60, 50 mg/kg", "result": 42, "unit": "%"}, {"measurement": "% inhibiting activity on carrageenan-induced edema", "setting": "[2]; To - 60, 75 mg/kg", "result": 40, "unit": "%"}, {"measurement": "% inhibiting activity on carrageenan-induced edema", "setting": "[2]; To - 60, 100 mg/kg", "result": 39, "unit": "%"}, {"measurement": "% inhibiting activity on carrageenan-induced edema", "setting": "[2]; To - 60, 200 mg/kg", "result": 58, "unit": "%"}, {"measurement": "% inhibiting activity on carrageenan-induced edema", "setting": "[2]; To - 60, 400 mg/kg", "result": 69, "unit": "%"}, {"measurement": "% inhibiting activity on carrageenan-induced edema", "setting": "[2]; at To, 100 mg/kg", "result": "57% and 29%"}, {"measurement": "% inhibiting activity on carrageenan-induced edema", "setting": "[2]; at To, 200 mg/kg", "result": "28% and 36%"}, {"measurement": "% inhibiting activity on carrageenan-induced edema", "setting": "[2]; at To, 400 mg/kg", "result": "55% and 39%"}, {"measurement": "mortality at 336 h", "setting": "[3]; 500 mg/kg", "result": 0, "unit": "%"}, {"measurement": "mortality at 336 h", "setting": "[3]; 1000 mg/kg", "result": 10, "unit": "%"}, {"measurement": "mortality at 336 h", "setting": "[3]; 2000 mg/kg", "result": 100, "unit": "%"}, {"measurement": "mortality at 336 h", "setting": "[4]", "result": 20, "unit": "%"}]}]}
